Measurements from patent US6914072B2, “Cannabinoid drugs” (Indevus Pharmaceuticals, Inc., priority 2000, dated 2005).

Experiments:
C6 glioma cells [1] = assay: Co-incubation of C6 glioma cells with a CB1 antagonist; type: cell-based; conditions: 3.2 μM of a specific CB1 antagonist
From the text: (§1) Cell proliferation assays. […] 5:69-84, 1995.
First, the compound's inhibition of cell proliferation was not reversible with a CB1 antagonist.

HT1376 = assay: 48 hour MTT assay, HT1376 (bladder); type: cell-based, human; conditions: 25 μM
Description: as §1
(§2) The proliferation of a number of human cell lines derived from a variety of cancer types (brain, breast, bladder, lung, and prostate) was tested for sensitivity to 25 μM of each agent for 48 hours.

[2] = tested on: human glioma cell line U87; assay: In vivo subcutaneous U87 nude mouse tumor model; set-up: species or system male nu/nu BALBc mice; conditions: 0.1 mg/kg thrice weekly, FIG. 4
Description: In vivo subcutaneous model. 10^6 U87 cells were injected into the right […] of male nu/nu BALBc mice (Charles River). Two days after inoculation, the mice received either 0.1 mg/kg ajulemic acid in 0.05 ml of safflower oil, or 0.05 ml safflower oil by oral administration. Thereafter, identical dosings were performed on each Monday, Wednesday, and Friday. When visible tumors appeared, the size of the tumors were estimated by averaging the values of two roughly perpendicular diameters measurements. Visible tumors were measured on the days of drug administration.
Whether ajulemic acid has in vivo antitumor activity was determined using a nude mouse tumor model. The growth of the human glioma cell line U87 injected subcutaneously in nude mice was assessed with and without ajulemic acid administration. For these experiments, ajulemic acid treatment was initiated two days after inoculation of 10^6 tumor cells in the mice. […] At day 25 post-inoculation, 5 of 5 control mice had tumors with a mean diameter of 16.3±3.2 mm, while the mean diameter in the treated group was 3.8±8.5 mm (n=5, p-0.015, t-test).

PC3 = assay: 48 hour MTT assay, PC3 (prostate); type: cell-based, human; conditions: 25 μM
Description: as §1, §2

WI38 cells = assay: Refractile bodies by phase microscopy, WI38 cells; type: cell-based, rat; conditions: same length of time and dosage (48 hours)
Calu6 = assay: 48 hour MTT assay, Calu6 (lung); type: cell-based, human; conditions: 25 μM
Description: as §1, §2

PKC activity in C6 cells = assay: Protein kinase C (PKC) assay; type: cell-based; conditions: 25 μM
Description: Protein kiniase C (PKC) assay. Cells were transferred into MEM media (0.5% serum) and cultured overnight. The next day, cells were treated with either DMSO or 25 μM ajulemic acid for the specified incubation time, after which the plates were trypsinized. 5×10^6 trypsinized cells were assayed for PKC activity using a kit (Calbiochem, cat. no. 53984).
Because diacyl glycerol (DAG) is an important signal transducer of protein kinase C, the effect of ajulemic acid treatment on the PKC activity in C6 cells was examined. […] At least two alternative explanations for this observation exist: (1) the PKC isozymes that were stimulated were those with slow growth, such as PKCδ; and (2) the increased DAG was modulating some other downstream mediator, such as β-chimaerin, to a greater extent such that the balance is towards anti-proliferation.

[3] = tested on: normal fibroblast cell line WI38; assay: MTT cell proliferation assay, WI38 cells; conditions: 25 μM, two days, three different experiments
C6 glioma cells [4] = assay: Flow cytometry/cell cycle analysis; type: cell-based; conditions: 25 μM, two days in 10% serum after synchronization; control 4.4 ± 0.3
Description: Flow cytometry/cell cycle analysis. For flow cytometry, cells were grown in low serum (0.5%) for two days to synchronize cells in G0/G1, after which they were placed in high serum (10%) for two days. The cells were then labeled with propidium iodide and fixed in 4% paraformaldehyde. Cells were examined using a MoFlo Facs sorter for DNA content.
(§3) In order to investigate this effect further, the effect of ajulemic acid on cell cycle kinetics was assessed. C6 glioma cells were incubated for 24 hours in media containing 0.5% serum to synchronize them in G1/G0. The cells were then exposed to media containing 10% serum either with or without 25 μM ajulemic acid for two days.

[5] = tested on: human cell lines derived from a variety of cancer types (brain, breast, bladder, lung, and prostate); assay: 48 hour MTT assay, panel of ten human cancer cell lines (mean); type: cell-based; conditions: 25 μM; for Inhibition level (mean±SD) over the human cancer cell lines: 48 hours, mean±SD of ten lines
Description: as §1, §2

A172 = assay: 48 hour MTT assay, A172 (brain); type: cell-based, human; conditions: 25 μM
Description: as §1, §2

C6 cells [6] = assay: Cell morphology (phase and electron microscopy), C6 cells; type: cell-based
Description: as §3
Third, another distinctive feature of ajulemic acid's antitumor effect was the appearance of retractile bodies that could be easily visualized with phase microscopy. Both the number of cells that had refractile bodies as well as the number of refractile bodies/cell increased over time. After 48 hours, 83% of ajulemic acid-treated C6 cells had one or more refractile bodies compared to 27% to THC-treated cells (p<0.001, Chi-square analysis). The mean number of refractile bodies per cell was also much higher for ajulemic acid-treated cells compared to THC-treated cells (1.78±1.6 vs. 0.22±0.5 per cell, p<0.001, t-test).
To further explore the nature of the cell enlargement and refractile bodies, cells were examined under electron microscopy. […] In fact, these cells appeared metabolically active. […] Moreover, ajulemic acid-treated cells were enlarged and contained large lipid droplets, the identity of which was confirmed by […].

U373 = assay: 48 hour MTT assay, U373 (brain); type: cell-based, human; conditions: 25 μM
Description: as §1, §2

C6 glioma cells [7] = assay: MTT cell proliferation assay, C6 glioma cells; type: cell-based
Description: as §1, §2

U87 = assay: 48 hour MTT assay, U87 (brain); type: cell-based, human; conditions: 25 μM
Description: as §1, §2

J82 = assay: 48 hour MTT assay, J82 (bladder); type: cell-based, human; conditions: 25 μM
Description: as §1, §2

HS578T = assay: 48 hour MTT assay, HS578T (breast); type: cell-based, human; conditions: 25 μM
Description: as §1, §2

C6 cells [8] = assay: Viability by trypan blue exclusion; type: cell-based; conditions: ajulemic acid-treated cells
C6 cells [9] = assay: Lipid incorporation assay (14C-arachidonic acid); type: cell-based; conditions: 25 μM, 48 hours
Du145 = assay: 48 hour MTT assay, Du145 (prostate); type: cell-based, human; conditions: 25 μM
Description: as §1, §2

U118 = assay: 48 hour MTT assay, U118 (brain); type: cell-based, human; conditions: 25 μM
Description: as §1, §2

[10] = Stereospecificity of the proliferation effect (D-isomer vs L-isomer); type: cell-based; conditions: 25 μM dose, p<0.001, FIG. 2
From the text: as §1
To assess whether ajulemic acid's effect was receptor-mediated, a preparation 95% enriched in the D-isomer of ajulemic acid was used to examine the stereospecificity of the effect observed above.

Row | SMILES | Percent inhibition of human cancer cell line growth in 48 hour MTT assay (HT1376) [%] | Percent inhibition of human cancer cell line growth in 48 hour MTT assay (PC3) [%] | Percent inhibition of human cancer cell line growth in 48 hour MTT assay (Calu6) [%] | Inhibition level (mean±SD) over the human cancer cell lines [5] [%] | Percent inhibition of human cancer cell line growth in 48 hour MTT assay (A172) [%] | Percent inhibition of human cancer cell line growth in 48 hour MTT assay (U373) [%] | Percent inhibition of human cancer cell line growth in 48 hour MTT assay (U87) [%] | Percent inhibition of human cancer cell line growth in 48 hour MTT assay (J82) [%] | Percent inhibition of human cancer cell line growth in 48 hour MTT assay (HS578T) [%] | Percent inhibition of human cancer cell line growth in 48 hour MTT assay (Du145) [%] | Percent inhibition of human cancer cell line growth in 48 hour MTT assay (U118) [%] | further results
1 | CCCCCc1cc(O)c2c(c1)OC(C)(C)[C@@H]1CCC(C)=C[C@@H]21 [Δ^9-THC, tetrahydrocannabinol, reference compound] | – | – | – | – | – | – | – | – | – | – | – | Decrease in potency on co-incubation with CB1 antagonist (C6 glioma cells [1]): 150%
2 | CCCCCCC(C)(C)c1cc(O)c2c(c1)OC(C)(C)[C@@H]1CC=C(C(=O)O)C[C@@H]21 [ajulemic acid, 1′,1′-dimethylheptyl-Δ^8-THC11-oic acid] | 60 ± 2 | 69 ± 2 | 69 ± 3 | 61.3 ±12.1 | 76 ± 1 | 34 ± 1 | 54 ± 2 | 57 ± 3 | 60 ± 2 | 74 ± 2 | 60 ± 2 | Tumor appearance and size (in words) [2]: A delay in both the appearance and size of tumors; Refractile bodies (in words), WI38 cells (WI38 cells): no retractile bodies were noted; Onset of PKC activity increase (PKC activity in C6 cells): increased within five minutes; PKC activity relative to control (PKC activity in C6 cells; for one hour): approximately two-fold above that of control; Inhibition of WI38 cell proliferation [3]: 44%; S (mean % ± SD) (C6 glioma cells [4]): 13.0%; Effectiveness compared to THC in the ten lines ([5]; p<0.05, in six of the ten lines tested): significantly more effective; Appearance of treated cells under electron microscopy (C6 cells [6]): neither apoptotic nor necrotic; Inhibition of C6 cell proliferation (C6 glioma cells [7]; 25 μM, two days, three different experiments): 65%; IC50 (C6 glioma cells [7]; C6 glioma cells, FIG. 1, read-out: IC50, inhibition of C6 glioma cells (MTT assay)): 55 µM; Change of effect on co-incubation with CB1 antagonist (in words) (C6 glioma cells [1]): slight potentiation; Viability rate by trypan blue exclusion (C6 cells [8]): > 95%; Content of tri- and di-glyceride relative to controls (C6 cells [9]): over three-fold greater than in controls; Neutral lipids (14C-arachidonic acid incorporation) versus basal levels (C6 cells [9]; p<0.05 Dunnett's test, FIG. 3): significant increase above basal levels
3 | CCCCCc1cc(O)c2c(c1)OC(C)(C)[C@@H]1CC=C(C(=O)O)C[C@@H]21 [THC-11-oic acid, reference compound] | 21 ± 12 | 1 ± 1 | 19 ± 5 | 13.1±18.5 | 61 ± 2 | 0 | 5 ± 1 | 3 ± 1 | 2 ± 1 | 7 ± 3 | 14 ± 3 | Refractile bodies (in words), C6 glioma cells (C6 cells [6]; 25 μM, 48 hours): no retractile bodies were noted
4 | CCCCCCC(C)(C)c1cc(O)c2c(c1)OC(C)(C)[C@@H]1CC=C(C(=O)O)C[C@@H]21 (single isomer, unassigned) [D-isomer of ajulemic acid] | – | – | – | – | – | – | – | – | – | – | – | Potency of D-isomer compared to L-isomer of ajulemic acid [10]: marked decrease in the potency
